Reference: publication PMC6017705, “Discovery of N-(Naphtho[1,2-b]Furan-5-Yl) Benzenesulfonamides as Novel Selective Inhibitors of Triple-Negative Breast Cancer (TNBC)” (Molecules : A Journal of Synthetic Chemistry and Natural …, 2018)
“Also recorded” adds a separate entry of the source.

Tests used:
MDA-MB-453 = test: Cell viability assay (CCK-8), MDA-MB-453; format: cell-based; settings: Homo sapiens, TNBC cell line, CCK-8, 72 h, 0.156 to 40 μM
Procedure: (§1) Four human TNBC cell lines (MDA-MB-231, MDA-MB-453, SUM-159, and BT-20), a non-TNBC breast cancer cell line (MCF-7) and a normal mammary epithelial cell line (MCF-10A) were cultured with DMEM (phenol free) supplemented with 2.5% CS-FBS and 1% L-Glu. 1.2 × 10^3 of cells were seeded into 384-well microplates and maintained for 24 h in an incubator at 37 °C in a 5% CO2, saturated humidified atmosphere. Different compounds were added into cells with 9 concentrations from 0.156 to 40 μM for 72 h. […] Then CCK-8 solution was added into cells and incubated for another 4 h. Absorbance was measured with a Microplate Reader at 450/600 nm. The IC50 values of the compounds on TNBC cell lines were derived using GraphPad Prism 5.0 (GraphPad Software, Inc., La Jolla, CA, USA).

SUM-159 = test: Cell viability assay (CCK-8), SUM-159; format: cell-based, human; settings: for IC50: TNBC cell line, CCK-8, 72 h, 0.156 to 40 μM; for inhibition at 5 µg/mL: SUM159
Procedure: as §1, with “Different compounds were added into cells with 9 concentrations from 0.156 to 40 μM for 72 h.” left out

BT-20 = test: Cell viability assay (CCK-8), BT-20; format: cell-based; settings: Homo sapiens, TNBC cell line, CCK-8, 72 h, 0.156 to 40 μM
Procedure: as §1

MDA-MB-231 = test: Cell viability assay (CCK-8), MDA-MB-231; format: cell-based, human; settings: for IC50: TNBC cell line, CCK-8, 72 h, 0.156 to 40 μM; for inhibition at 5 µg/mL: MDA-MB-231
Procedure: as §1, with “Different compounds were added into cells with 9 concentrations from 0.156 to 40 μM for 72 h.” left out

MCF-7 = test: Cell viability assay (CCK-8), MCF-7; format: cell-based, human; settings: for IC50 / inhibition at 5 µg/mL: Homo sapiens; for IC50: MCF7, 72 h, non-TNBC breast cancer cell line, CCK-8, 72 h; for inhibition at 5 µg/mL: MCF7
Procedure: as §1, with “Different compounds were added into cells with 9 concentrations from 0.156 to 40 μM for 72 h.” left out

MCF-10A = test: Cell viability assay (CCK-8), MCF-10A; format: cell-based, human; settings: for IC50: Homo sapiens, MCF-10A, normal mammary epithelial cell line, CCK-8, 72 h
Procedure: as §1

MDA-MB-436 = test: Cell viability assay, MDA-MB-436; format: cell-based; settings: Homo sapiens, TNBC cell line
Procedure: In addition to three TNBC cell lines (MDA-MB-231, MDA-MB-436, and SUM-159) and the breast cancer cell line MCF-7, we employed the normal mammary epithelial cell line MCF-10A, which was used for testing the compounds for their effects on normal breast cells (Table 6).
as §1

TNBC cell lines = test: Cell viability assay, different TNBC cell lines; format: cell-based, human; settings: for IC50: Homo sapiens
Procedure: as §1

[1] = test system: heme detoxification protein (HDP); design: method as in ref 20 = [20]; 20. Rathore D. Jani D. Nagarkatti R. HDP (Heme Detoxification Protein) Involved in Hemozoin Formation in Plasmodium and Theileria as an Anti-protozoal Target, and High-throughput Screening for Antimal; settings: cited from earlier work

| IC50 (MDA-MB-231; Homo sapiens, MDA-MB-231, 72 h) [µM] | SMILES | IC50 (SUM-159; Homo sapiens, SUM159, 72 h) [µM] | inhibition at 5 µg/mL (SUM-159; Homo sapiens) [%] | inhibition at 5 µg/mL (MDA-MB-231; Homo sapiens) [%] | inhibition at 5 µg/mL (MCF-7) [%] | other results |
| --- | --- | --- | --- | --- | --- | --- |
| 7.99 | CC(=O)Oc1c(SCC(=O)O)cc(NS(=O)(=O)c2ccc(F)cc2)c2ccccc12 [Compound 2-3] | > 40 |  |  |  | IC50 (MDA-MB-453): 8.59 µM; IC50 (BT-20): > 40 µM; IC50 (MCF-7): > 40 µM |
| 11.9 | COC(=O)c1c(C(C)(C)C)oc2c1cc(NS(=O)(=O)c1ccc(OC)cc1)c1ccccc12 [Compound 3-12] | 11.5 | 90.4 | 71.4 | 76.3 | IC50 (MCF-10A): > 40 µM; IC50 (MDA-MB-436): 7.13 µM |
| 4.36 | CCc1ccc(S(=O)(=O)Nc2cc(SCC(=O)O)c(O)c3ccccc23)cc1 [Compound 2-1] | 30.8 |  |  |  | IC50 (MDA-MB-453): 3.19 µM; IC50 (BT-20): 13.3 µM; IC50 (MCF-7): 14 µM |
|  | COc1ccc(S(=O)(=O)Nc2cc(SCC(=O)O)c(O)c3ccccc23)cc1 [Compound C10] |  |  |  |  | IC50 (MDA-MB-453): 2.3 µM; IC50 (BT-20): 10.6 µM |
| 2.68 | CCOc1ccc(S(=O)(=O)Nc2cc3c(C(=O)OC)c(C)oc3c3ccccc23)cc1 [Compound 3-9] | 2.66 | 60.8 | 63 | 24.3 | IC50 (MCF-10A): > 40 µM; IC50 (MDA-MB-436): 2.08 µM |
| 3.12 | COC(=O)c1c(C)oc2c1cc(NS(=O)(=O)c1ccc(OC)cc1)c1ccccc12 [Compound 2-5] | 2.91 | 56.8 | 31 |  | IC50 (MDA-MB-453): 2.95 µM; IC50 (BT-20): > 40 µM; IC50 (TNBC cell lines): 2 to 3 µM; inhibitory effect on MCF-10A (in words) (MCF-10A): no inhibitory activity; IC50 (MCF-10A): > 40 µM; inhibitory effect on MCF-7 (in words) (MCF-7): no inhibitory effect; also recorded: no inhibitory activity; IC50 (MCF-7): > 40 µM; IC50 (MDA-MB-436): 1.99 µM |
|  | Cc1oc2c(cc(NS(=O)(=O)c3ccc(F)cc3)c3ccccc32)c1C(=O)OC(C)C [Compound 3-39] |  | -0.193 | 42.3 | 4.95 |  |
| > 20 | COc1ccc(S(=O)(=O)Nc2cc3c(C(=O)O)c(C)oc3c3ccccc23)cc1 [Compound 2-5-COOH] | > 20 |  |  |  | IC50 (SUM-159): 24.2 µM; IC50 (MDA-MB-231): ~24 µM; fold reduced inhibitory activity compared to the ester compound (2-5) (TNBC cell lines; both TNBC cell lines (MDA-MB-231, SUM-159)): approximately 10 fold |
| 10 | CCc1ccc(S(=O)(=O)Nc2cc3c(C(=O)OC)c(C)oc3c3ccccc23)cc1 [Compound 3-20] | 17 | 65.4 | 53.5 | 31.2 |  |
| 3.95 | CC(C)c1ccc(S(=O)(=O)Nc2cc(SCC(=O)O)c(O)c3ccccc23)cc1 [Compound 2-7] | > 40 |  |  |  | IC50 (MDA-MB-453): 3.65 µM; IC50 (BT-20): > 40 µM; IC50 (MCF-7): > 40 µM |
| > 40 | COc1ccc(-c2oc3c(CCC(C)(C)O)c(O)cc(O)c3c(=O)c2O)cc1 [IC-163, reference compound] | > 40 |  |  |  | IC50 (MDA-MB-453): > 40 µM; IC50 (BT-20): > 40 µM; IC50 (MCF-7): > 40 µM |
|  | COC(=O)c1c(C)oc2c1cc(NS(=O)(=O)c1ccc(C(C)C)cc1)c1ccccc12 [Compound 3-4] |  | -0.319 | 37.8 | 14.2 |  |
| 5.49 | CCOC(=O)c1c(C)oc2c1cc(NS(=O)(=O)c1ccc(OCC)cc1)c1ccccc12 [Compound 3-37] | 4.09 | 66.8 | 59.7 | 42.5 | IC50 (MCF-10A): > 40 µM; IC50 (MDA-MB-436): 1.41 µM |
|  | CCOC(=O)c1c(C)oc2c1cc(NS(=O)(=O)c1ccc(C(C)C)cc1)c1ccccc12 [Compound 3-31] |  | -1.33 | 32.1 | 2.95 |  |
|  | COC(=O)c1c(C)oc2c1cc(NS(=O)(=O)c1cc(C)ccc1C)c1ccccc12 [Compound 3-15] |  | 0.037 | 45.6 | 18.5 |  |
|  | COC(=O)c1c(C)oc2c1cc(NS(=O)(=O)c1c(C)cc(C)cc1C)c1ccccc12 [Compound 3-38] |  | 1.35 | 50.6 | 14.8 |  |

| IC50 (MDA-MB-231; Homo sapiens, MDA-MB-231, 72 h) [µM] | SMILES | IC50 (SUM-159; Homo sapiens, SUM159, 72 h) [µM] | inhibition at 5 µg/mL (SUM-159; Homo sapiens) [%] | inhibition at 5 µg/mL (MDA-MB-231; Homo sapiens) [%] | inhibition at 5 µg/mL (MCF-7) [%] | other results |
| --- | --- | --- | --- | --- | --- | --- |
| 3.25 | CCCCOC(=O)c1c(C)oc2c1cc(NS(=O)(=O)c1ccc(OC)cc1)c1ccccc12 [Compound 3-3] | 8.66 | 42.1 | 51.1 | 29.7 | IC50 (MCF-10A): > 40 µM; IC50 (MDA-MB-436): 3.36 µM |
|  | CCc1ccc(S(=O)(=O)Nc2cc3c(C(=O)O)c(C)oc3c3ccccc23)cc1 [Compound 3-8] |  | 0.221 | -1.13 | -6.71 |  |
|  | COC(=O)c1c(C)oc2c1cc(NS(=O)(=O)c1cccc3cccnc13)c1ccccc12 [Compound 3-27] |  | 10.2 | 48.2 | 35.5 |  |
|  | Cc1oc2c(cc(NS(=O)(=O)c3ccccc3)c3ccccc32)c1C(=O)OCc1ccccc1 [Compound 3-26] |  | 1.58 | 51 | 25.6 |  |
| 2.96 | CCOC(=O)c1c(C)oc2c1cc(NS(=O)(=O)c1ccc(OC)cc1)c1ccccc12 [Compound 2-8] | 2.5 | 61.8 | 62.9 |  | IC50 (MDA-MB-453): 3.09 µM; IC50 (BT-20): 10.1 µM; IC50 (TNBC cell lines): 2 to 3 µM; inhibitory effect on MCF-10A (in words) (MCF-10A): no inhibitory activity; IC50 (MCF-10A): > 40 µM; inhibitory effect on MCF-7 (in words) (MCF-7): no inhibitory effect; also recorded: no inhibitory activity; IC50 (MCF-7): > 40 µM; IC50 (MDA-MB-436): 2.8 µM |
|  | CCOC(=O)c1c(C)oc2c1cc(NS(=O)(=O)c1c(C)cc(C)cc1C)c1ccccc12 [Compound 3-35] |  | 0.352 | 33.9 | 24.5 |  |
|  | COC(=O)c1c(C)oc2c1cc(NS(=O)(=O)c1ccc(F)cc1)c1ccccc12 [Compound 3-10] |  | 35.5 | 64.5 | 34.5 |  |
| 4.97 | Cc1ccc(S(=O)(=O)Nc2cc(SCC(=O)O)c(O)c3ccccc23)cc1 [Compound 2-6] | 19.2 |  |  |  | IC50 (MDA-MB-453): 3.36 µM; IC50 (BT-20): 25 µM; IC50 (MCF-7): > 40 µM |
|  | CCOC(=O)c1c(-c2ccccc2)oc2c1cc(NS(=O)(=O)c1ccc(CC)cc1)c1ccccc12 [Compound 3-22] |  | -0.556 | 53.6 | 2.24 |  |
| 1.77 | CCOc1ccc(S(=O)(=O)Nc2cc3c(C(C)=O)c(C)oc3c3ccccc23)cc1 [Compound 3-17] | 1.94 | 61 | 68.6 | 40.5 | IC50 (MCF-10A): 0.66 µM; IC50 (MDA-MB-436): ~0.01 µM |
|  | COC(=O)c1c(C)oc2c1cc(NS(=O)(=O)c1ccc(Cl)cc1)c1ccccc12 [Compound 3-33] |  | -0.507 | 32.8 | 2.82 |  |
|  | CCOc1ccc(S(=O)(=O)Nc2cc3c(C(=O)OCCOC)c(C)oc3c3ccccc23)cc1 [Compound 3-23] |  | 49.1 | 62 | 14.7 |  |
| 6.92 | CCOc1ccc(S(=O)(=O)Nc2cc(Cl)c(O)c3ccccc23)cc1 [Compound 2-11] | > 40 |  |  |  | IC50 (MDA-MB-453): 5.72 µM; IC50 (BT-20): > 40 µM; antimalarial HDP inhibitor (in words) [1]: inhibitor; IC50 (MCF-7): > 40 µM |
|  | CCOC(=O)c1c(C)oc2c1cc(NS(=O)(=O)c1ccc(CC)cc1)c1ccccc12 [Compound 3-11] |  | 0.175 | 41.1 | 13 |  |
|  | COC(=O)c1c(C)oc2c1cc(NS(=O)(=O)c1ccc3ccccc3c1)c1ccccc12 [Compound 3-7] |  | 0.085 | 0.431 | -4.73 |  |
